Literature values as cited in US20170056332A1, “HEMORRHOID PREPARATION AND SHEETS” (C.B. Fleet Company, Incorporated, priority 2015, published 2017).

Conditions: in the presence of menthol; Obata et al. 1990

CC1CCC(C(C)C)C(O)C1 (stereo not shown) [Menthol]
percutaneous absorption of hydrophilic diclofenac sodium: substantially enhanced
